Measurements reported in EP3184514A1, “AUTOPHAGY INHIBITORS” (Deutsches Krebsforschungszentrum, priority 2015, dated 2017).

Target: T1, GST-tagged LC3B (Homo sapiens, UniProt Q9GZQ8)
T1 construct: made in house; host or cells: E. coli Rosetta (DE3)
Experiment: GST-pulldown with purified GST-LC3B and lysates of treated cells
Details: HEK293T cells treated 100 µM, 1 hour; remaining binding compared to DMSO control
Description: A gene encoding for human LC3B protein inserted in a pET-GST expression vector was used as a template. Rosetta (DE3) competent cells were transformed by started procedure, plated on an LB agar plate with ampicillin (100 µg/ml) and left overnight at 37 °C. Overnight culture was prepared from a single colony and shaken at 180 rpm at 37 °C. LB medium with ampicillin was inoculated with overnight culture (10 ml per 500 ml of LB) and shaken until the optical density at 600 nm (OD600) reached a value of approximately 0.6. Protein expression was then induced with 400 µM IPTG and further incubated for 4 hours. Bacterial culture was centrifuged for 20 minutes at 6000 rpm at 4 °C. The pellet was then resuspended in lysis buffer (20 mM TRIS-HCl pH 7.5, 10 mM EDTA, 5 mM EGTA, 150 mM NaCl, 0.5 % NP40, 1 % Triton X-100, 1 mM DTT, 2 mg/ml lysozyme, 0.05 U/µl benzonase, 1x protease inhibitor cocktail). Lysate was then stored at -20 °C over night. Sample was thawed in water bath and sonicated on ice (40 % amplitude, 30 seconds pulse/30 seconds pause cycle). Lysate was centrifuged at 10000xg at 4 °C for half an hour. Meanwhile, 500 µl of glutathione sepharose beads was equilibrated with lysis buffer and then added to the supernatant. The mixture was incubated and rotated at room temperature for 2 hours. After binding of the protein to the beads, beads were spun down at 500xg at 4 °C for 5 minutes. […]

binding of p62 and ATG13 to GST-tagged LC3B: approximately 50%
SMILES: Brc1ccc(CSC2=NCN(Cc3cccnc3)CN2)cc1 [Compound I-1, 6-((4-bromobenzyl)thio)-3-(pyridin-3-ylmethyl)-1,2,3,4-tetrahydro-1,3,5-triazine]
